Experimental data taken from PubChem BioAssay (NCI).
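48-hour exposure; five concentrations; linearly interpolated endpoints. The concentration for 50% growth inhibition is given as GI50. TGI: total growth inhibition.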

How the values were obtained:
Assay in all cases: DTP human tumour cell line panel, 48 h
A498 renal = system: A498 renal
ACHN renal = system: ACHN renal
CCRF-CEM leukemia = system: CCRF-CEM leukemia
HCT-116 colon = system: HCT-116 colon
HCT-15 colon = system: HCT-15 colon
HOP-92 NSCLC = system: HOP-92 NSCLC
KM12 colon = system: KM12 colon
MALME-3M melanoma = system: MALME-3M melanoma
NCI-H226 lung = system: NCI-H226 lung
UO-31 renal = system: UO-31 renal

O=C1c2ccn(CCCCN3CCCCC3)c2C(=O)c2c1c(O)c1ccccc1c2O
GI50 (A498 renal): 15.3 µM
TGI (A498 renal): 35.1 µM
GI50 (ACHN renal): 18.7 µM
TGI (ACHN renal): 38.5 µM
GI50 (CCRF-CEM leukemia): 1.95 µM
TGI (CCRF-CEM leukemia): 4.61 µM
GI50 (HCT-116 colon): 7.76 µM
TGI (HCT-116 colon): > 53.9 µM
GI50 (HCT-15 colon): 2.74 µM
TGI (HCT-15 colon): 7.98 µM
GI50 (HOP-92 NSCLC): 3.68 µM
TGI (HOP-92 NSCLC): 22.9 µM
GI50 (KM12 colon): 8.55 µM
TGI (KM12 colon): 27.5 µM
GI50 (MALME-3M melanoma): 7.58 µM
TGI (MALME-3M melanoma): 20.4 µM
GI50 (NCI-H226 lung): 30 µM
TGI (NCI-H226 lung): > 73.7 µM
GI50 (UO-31 renal): 20.9 µM
TGI (UO-31 renal): > 100 µM

NCCP(=O)(O)O
TGI (A498 renal): > 100 µM
TGI (ACHN renal): > 100 µM
TGI (CCRF-CEM leukemia): > 100 µM
TGI (HCT-116 colon): > 100 µM
TGI (HCT-15 colon): > 100 µM
TGI (HOP-92 NSCLC): > 100 µM
TGI (KM12 colon): > 100 µM
TGI (MALME-3M melanoma): > 100 µM
TGI (NCI-H226 lung): > 100 µM
TGI (UO-31 renal): > 100 µM

CC(CN1CCN(CC(C)Nc2ccnc3cc(Cl)ccc23)CC1)Nc1ccnc2cc(Cl)ccc12 (stereo not drawn)
TGI (A498 renal): > 56.8 µM
TGI (ACHN renal): 64.6 µM
TGI (CCRF-CEM leukemia): > 100 µM
TGI (HCT-116 colon): 12.9 µM
TGI (HCT-15 colon): 19.6 µM
GI50 (HOP-92 NSCLC): 1.59 µM
TGI (HOP-92 NSCLC): 13.2 µM
TGI (KM12 colon): > 51.8 µM
TGI (MALME-3M melanoma): 26.5 µM
TGI (NCI-H226 lung): > 69.5 µM
TGI (UO-31 renal): 30.7 µM

CC(O)(CNS(=O)(=O)c1ccccc1)c1ccccc1 (stereo not drawn)
TGI (A498 renal): > 100 µM
TGI (ACHN renal): > 100 µM
TGI (CCRF-CEM leukemia): > 100 µM
TGI (HCT-116 colon): > 100 µM
TGI (HCT-15 colon): > 100 µM
TGI (HOP-92 NSCLC): > 100 µM
TGI (KM12 colon): > 100 µM
TGI (MALME-3M melanoma): > 100 µM
TGI (NCI-H226 lung): > 100 µM
TGI (UO-31 renal): > 100 µM

COc1cc(C2=NN(c3ccc(S(N)(=O)=O)cc3)C(c3ccc(Cl)cc3)C2)cc(OC)c1OC (stereo not drawn)
GI50 (A498 renal): 1.93 µM
TGI (A498 renal): 7.68 µM
GI50 (ACHN renal): 2.62 µM
TGI (ACHN renal): 9.27 µM
GI50 (CCRF-CEM leukemia): 4.81 µM
TGI (CCRF-CEM leukemia): > 100 µM
GI50 (HCT-116 colon): 3.41 µM
TGI (HCT-116 colon): > 100 µM
GI50 (HCT-15 colon): 3.77 µM
TGI (HCT-15 colon): > 100 µM
GI50 (HOP-92 NSCLC): 2.02 µM
TGI (HOP-92 NSCLC): 14.5 µM
GI50 (KM12 colon): 4.79 µM
TGI (KM12 colon): > 100 µM
GI50 (MALME-3M melanoma): 11.4 µM
TGI (MALME-3M melanoma): > 100 µM
GI50 (NCI-H226 lung): 7.25 µM
TGI (NCI-H226 lung): > 100 µM
GI50 (UO-31 renal): 2.5 µM
TGI (UO-31 renal): > 100 µM

COc1cc(-c2cc(/C=C3\C(=O)Nc4ccccc43)[nH]n2)cc(OC)c1OC
GI50 (A498 renal): 2.5 µM
TGI (A498 renal): 7.71 µM
GI50 (ACHN renal): 2.5 µM
TGI (ACHN renal): 12 µM
GI50 (CCRF-CEM leukemia): 2.28 µM
TGI (CCRF-CEM leukemia): 6.96 µM
GI50 (HCT-116 colon): 2.74 µM
TGI (HCT-116 colon): 11.1 µM
GI50 (HCT-15 colon): 2.57 µM
TGI (HCT-15 colon): 10.1 µM
GI50 (HOP-92 NSCLC): 1.97 µM
TGI (HOP-92 NSCLC): 9.12 µM
GI50 (KM12 colon): 1.26 µM
TGI (KM12 colon): 10.7 µM
GI50 (MALME-3M melanoma): 2.28 µM
TGI (MALME-3M melanoma): 7.47 µM
GI50 (NCI-H226 lung): 2.43 µM
TGI (NCI-H226 lung): 15.5 µM
GI50 (UO-31 renal): 1.91 µM
TGI (UO-31 renal): 12.2 µM

CCc1c(O)c2c(c(O)c1C(C)=O)C(=O)c1c(cc(O)c(C(=O)O)c1C(=O)O)C2=O
TGI (A498 renal): > 100 µM
TGI (ACHN renal): > 100 µM
TGI (CCRF-CEM leukemia): > 100 µM
TGI (HCT-116 colon): > 100 µM
TGI (HCT-15 colon): > 100 µM
TGI (HOP-92 NSCLC): > 100 µM
TGI (KM12 colon): > 100 µM
TGI (MALME-3M melanoma): > 100 µM
TGI (NCI-H226 lung): > 100 µM
TGI (UO-31 renal): > 100 µM

O=C(O)c1cscc1Cc1cccs1
TGI (A498 renal): > 100 µM
TGI (ACHN renal): > 100 µM
TGI (CCRF-CEM leukemia): > 100 µM
TGI (HCT-116 colon): > 100 µM
TGI (HCT-15 colon): > 100 µM
TGI (HOP-92 NSCLC): > 100 µM
TGI (KM12 colon): > 100 µM
TGI (MALME-3M melanoma): > 100 µM
TGI (NCI-H226 lung): > 100 µM

C[C@@H](Oc1ccc2[nH]nc(/C=C/c3cnn(CCO)c3)c2c1)c1c(Cl)cncc1Cl
GI50 (A498 renal): < 0.01 µM
TGI (A498 renal): 0.274 µM
GI50 (ACHN renal): 0.284 µM
TGI (ACHN renal): > 100 µM
GI50 (CCRF-CEM leukemia): 0.105 µM
TGI (CCRF-CEM leukemia): 5 µM
GI50 (HCT-116 colon): 0.082 µM
TGI (HCT-116 colon): > 100 µM
GI50 (HCT-15 colon): 0.197 µM
TGI (HCT-15 colon): 8.38 µM
GI50 (HOP-92 NSCLC): 0.0168 µM
TGI (HOP-92 NSCLC): 0.0987 µM
GI50 (KM12 colon): < 0.01 µM
TGI (KM12 colon): 5.87 µM
GI50 (MALME-3M melanoma): 1.86 µM
TGI (MALME-3M melanoma): 4.68 µM
GI50 (NCI-H226 lung): 0.0304 µM
GI50 (UO-31 renal): 0.217 µM

COc1ccc(Cl)cc1NC(=O)c1cccc([N+](=O)[O-])c1O
TGI (A498 renal): 35.4 µM
TGI (ACHN renal): > 70.4 µM
TGI (CCRF-CEM leukemia): > 100 µM
TGI (HCT-116 colon): 43.3 µM
TGI (HCT-15 colon): > 100 µM
TGI (HOP-92 NSCLC): 16.6 µM
TGI (KM12 colon): > 72 µM
TGI (MALME-3M melanoma): 19.3 µM
TGI (NCI-H226 lung): 64.9 µM
TGI (UO-31 renal): 39.8 µM

CCc1cccc(C(C)CC)c1NC(=O)C(=O)C(CC(=O)Nc1ccc(Cl)c(Cl)c1)C(=O)OC (stereo not drawn)
TGI (A498 renal): > 100 µM
TGI (ACHN renal): 69.8 µM
TGI (CCRF-CEM leukemia): > 100 µM
TGI (HCT-116 colon): > 100 µM
TGI (HCT-15 colon): > 100 µM
TGI (HOP-92 NSCLC): > 100 µM
TGI (KM12 colon): > 100 µM
TGI (MALME-3M melanoma): > 100 µM
TGI (NCI-H226 lung): > 100 µM
TGI (UO-31 renal): > 100 µM

Cc1cc(C)n(C(=O)c2nn(-c3ccc(Cl)cc3)cc2O)n1
GI50 (A498 renal): 2.9 µM
TGI (A498 renal): 8.77 µM
GI50 (ACHN renal): 3.77 µM
TGI (ACHN renal): > 100 µM
GI50 (CCRF-CEM leukemia): 3.66 µM
TGI (CCRF-CEM leukemia): 54.5 µM
GI50 (HCT-116 colon): 3.42 µM
TGI (HCT-116 colon): 48.2 µM
GI50 (HCT-15 colon): 3.53 µM
TGI (HCT-15 colon): > 100 µM
GI50 (HOP-92 NSCLC): 4.52 µM
TGI (HOP-92 NSCLC): > 100 µM
GI50 (KM12 colon): 5.07 µM
TGI (KM12 colon): > 100 µM
GI50 (MALME-3M melanoma): 4.59 µM
TGI (MALME-3M melanoma): 57.6 µM
GI50 (NCI-H226 lung): 4.66 µM
TGI (NCI-H226 lung): 98.9 µM
GI50 (UO-31 renal): 3.01 µM
TGI (UO-31 renal): 19.2 µM

NC(Cc1ccnnc1)C(=O)O (stereo not drawn)
TGI (A498 renal): > 100 µM
TGI (ACHN renal): > 100 µM
TGI (CCRF-CEM leukemia): > 100 µM
TGI (HCT-116 colon): > 100 µM
TGI (HCT-15 colon): > 100 µM
TGI (HOP-92 NSCLC): > 100 µM
TGI (KM12 colon): > 100 µM
TGI (MALME-3M melanoma): > 100 µM
TGI (NCI-H226 lung): > 100 µM
TGI (UO-31 renal): > 100 µM
